Experimental data reported in ChEMBL document CHEMBL1833909, “Synthesis and structure-activity relationships of 4,5-fused pyridazinones as histamine H₃ receptor antagonists” (Bioorg Med Chem Lett, 2011).

Key:
Histamine H3 receptor [1] = target: T1, Histamine H3 receptor (Homo sapiens, UniProt Q9Y5N1); assay: biochemical
Histamine H3 receptor [2] = target: Histamine H3 receptor (Rattus norvegicus, UniProt Q9QYN8); assay: Displacement of [3H]-NAMH from rat histamine H3 receptor expressed in CHO cells; assay type: cell-based
Chain of Histamine H3 receptor (Rattus norvegicus, UniProt Q9QYN8) (Q9QYN8 whole entry): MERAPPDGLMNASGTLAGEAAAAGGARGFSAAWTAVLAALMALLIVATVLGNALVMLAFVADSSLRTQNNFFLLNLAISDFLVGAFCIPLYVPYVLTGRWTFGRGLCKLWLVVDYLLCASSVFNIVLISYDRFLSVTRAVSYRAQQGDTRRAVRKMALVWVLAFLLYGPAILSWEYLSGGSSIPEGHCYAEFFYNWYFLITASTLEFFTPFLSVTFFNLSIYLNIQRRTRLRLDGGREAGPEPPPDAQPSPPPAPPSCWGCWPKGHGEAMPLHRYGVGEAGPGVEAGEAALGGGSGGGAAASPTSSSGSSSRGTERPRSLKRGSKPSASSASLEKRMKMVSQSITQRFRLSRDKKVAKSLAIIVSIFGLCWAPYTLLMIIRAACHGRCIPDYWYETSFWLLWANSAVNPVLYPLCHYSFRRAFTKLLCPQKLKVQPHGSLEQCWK

Cytochrome P450 1A2 = target: T2, Cytochrome P450 1A2 (Homo sapiens, UniProt P05177); assay: Inhibition of CYP1A2; assay type: ADME
T2 sequence (P05177 whole entry): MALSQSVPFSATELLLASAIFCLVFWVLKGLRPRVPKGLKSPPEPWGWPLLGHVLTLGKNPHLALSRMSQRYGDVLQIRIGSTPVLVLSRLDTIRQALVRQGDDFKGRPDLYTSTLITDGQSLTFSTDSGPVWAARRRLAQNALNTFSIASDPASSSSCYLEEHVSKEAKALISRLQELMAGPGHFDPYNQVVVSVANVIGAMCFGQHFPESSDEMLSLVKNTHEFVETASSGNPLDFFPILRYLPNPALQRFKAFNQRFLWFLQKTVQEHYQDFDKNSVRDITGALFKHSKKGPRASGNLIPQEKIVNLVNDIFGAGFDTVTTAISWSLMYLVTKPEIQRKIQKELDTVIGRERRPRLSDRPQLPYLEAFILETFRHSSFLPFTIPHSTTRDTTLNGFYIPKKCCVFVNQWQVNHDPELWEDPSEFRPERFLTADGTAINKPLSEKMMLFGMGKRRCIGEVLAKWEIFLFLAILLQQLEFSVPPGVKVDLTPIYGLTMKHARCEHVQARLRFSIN

Histamine H3 receptor [3] = target: T1, Histamine H3 receptor; assay: Inverse agonist activity at human histamine H3 receptor assessed as decrease of basal activity of [35S]GTPgammaS binding; assay type: functional
Cytochrome P450 2C19 = Cytochrome P450 2C19 (Homo sapiens, UniProt P33261); assay: Inhibition of CYP2C19; assay type: ADME
Chain of Cytochrome P450 2C19 (P33261 whole entry): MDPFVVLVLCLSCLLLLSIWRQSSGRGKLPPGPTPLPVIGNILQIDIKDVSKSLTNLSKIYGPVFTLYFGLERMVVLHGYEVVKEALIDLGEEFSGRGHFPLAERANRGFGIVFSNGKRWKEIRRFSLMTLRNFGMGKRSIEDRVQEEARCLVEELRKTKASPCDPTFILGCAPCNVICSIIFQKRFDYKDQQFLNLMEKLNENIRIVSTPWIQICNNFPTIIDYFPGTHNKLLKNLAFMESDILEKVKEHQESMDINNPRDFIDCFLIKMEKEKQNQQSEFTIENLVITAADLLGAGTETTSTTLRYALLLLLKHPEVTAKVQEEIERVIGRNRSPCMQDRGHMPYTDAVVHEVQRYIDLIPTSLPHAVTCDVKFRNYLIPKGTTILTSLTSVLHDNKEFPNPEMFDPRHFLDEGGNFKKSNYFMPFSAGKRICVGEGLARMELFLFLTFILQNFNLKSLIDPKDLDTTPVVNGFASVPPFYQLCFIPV

Cytochrome P450 3A4 = Cytochrome P450 3A4 (Homo sapiens, UniProt P08684); assay: Inhibition of CYP3A4; assay type: ADME
Chain of Cytochrome P450 3A4 (P08684 whole entry): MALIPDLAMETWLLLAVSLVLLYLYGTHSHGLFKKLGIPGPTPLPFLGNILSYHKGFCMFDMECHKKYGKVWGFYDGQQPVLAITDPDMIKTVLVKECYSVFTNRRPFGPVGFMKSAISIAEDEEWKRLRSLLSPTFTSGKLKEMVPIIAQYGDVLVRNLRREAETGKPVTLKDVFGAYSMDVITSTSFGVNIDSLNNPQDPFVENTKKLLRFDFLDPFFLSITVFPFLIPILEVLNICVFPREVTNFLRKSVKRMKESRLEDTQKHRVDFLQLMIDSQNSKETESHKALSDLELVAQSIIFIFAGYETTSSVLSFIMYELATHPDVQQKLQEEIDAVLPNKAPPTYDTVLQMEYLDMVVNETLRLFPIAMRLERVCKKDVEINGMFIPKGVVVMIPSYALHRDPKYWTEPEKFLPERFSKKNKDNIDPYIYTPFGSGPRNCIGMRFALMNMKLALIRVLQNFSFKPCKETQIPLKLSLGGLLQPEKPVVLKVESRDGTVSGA

Cytochrome P450 2C9 = Cytochrome P450 2C9 (Homo sapiens, UniProt P11712); assay: Inhibition of CYP2C9; assay type: ADME
Chain of Cytochrome P450 2C9 (P11712 whole entry): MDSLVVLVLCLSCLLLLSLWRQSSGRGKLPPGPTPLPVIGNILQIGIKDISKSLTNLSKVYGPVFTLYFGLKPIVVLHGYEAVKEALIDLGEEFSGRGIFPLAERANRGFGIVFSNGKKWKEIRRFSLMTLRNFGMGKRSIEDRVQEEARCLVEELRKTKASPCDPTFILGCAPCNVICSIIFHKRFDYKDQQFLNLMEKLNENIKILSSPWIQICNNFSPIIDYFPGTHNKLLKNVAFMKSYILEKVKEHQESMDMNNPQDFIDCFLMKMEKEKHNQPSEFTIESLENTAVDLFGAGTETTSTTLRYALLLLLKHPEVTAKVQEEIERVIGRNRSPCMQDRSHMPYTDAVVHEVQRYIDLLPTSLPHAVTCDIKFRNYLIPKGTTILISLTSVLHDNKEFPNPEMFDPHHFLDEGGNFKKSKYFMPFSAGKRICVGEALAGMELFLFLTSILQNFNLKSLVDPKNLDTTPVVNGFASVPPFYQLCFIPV

Cytochrome P450 2D6 = Cytochrome P450 2D6 (Homo sapiens, UniProt P10635); assay: Inhibition of CYP2D6; assay type: ADME
Chain of Cytochrome P450 2D6 (P10635 whole entry): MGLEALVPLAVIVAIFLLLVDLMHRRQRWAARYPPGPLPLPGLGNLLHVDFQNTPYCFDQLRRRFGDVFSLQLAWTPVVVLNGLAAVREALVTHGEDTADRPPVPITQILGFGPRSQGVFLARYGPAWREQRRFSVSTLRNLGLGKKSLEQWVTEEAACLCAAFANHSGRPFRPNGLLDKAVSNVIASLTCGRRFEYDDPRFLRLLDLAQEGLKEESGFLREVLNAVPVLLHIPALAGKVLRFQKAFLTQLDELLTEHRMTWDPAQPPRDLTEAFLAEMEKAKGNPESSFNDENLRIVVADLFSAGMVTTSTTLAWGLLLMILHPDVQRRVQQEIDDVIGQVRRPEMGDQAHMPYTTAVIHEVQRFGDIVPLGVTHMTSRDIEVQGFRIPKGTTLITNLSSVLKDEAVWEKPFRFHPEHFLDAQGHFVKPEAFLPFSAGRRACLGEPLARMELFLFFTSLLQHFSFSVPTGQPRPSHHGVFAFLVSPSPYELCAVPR

Histamine H3 receptor [4] = target: T1, Histamine H3 receptor; assay: Antagonist activity at recombinant human histamine H3 receptor assessed as inhibition of RAMH-induced [35S]GTPgammaS binding; assay type: functional
[5] = Oral bioavailability in rat at 5 mg/kg; assay type: ADME, organism-based; settings: in vivo
[6] = Half life in human liver microsomes; assay type: ADME, Microsome
[7] = AUC in rat at 5 mg/kg, po; assay type: ADME, organism-based; parameters: dose 5 mg/kg, route oral; settings: plasma
[8] = AUC in rat at 1 mg/kg, iv; assay type: ADME, organism-based; parameters: dose 1 mg/kg, route intravenous; settings: plasma
[9] = Half life in rat liver microsomes; assay type: ADME, Microsome
[10] = Clearance in rat at 1 mg/kg, iv; assay type: ADME, organism-based; parameters: dose 1 mg/kg, route intravenous; settings: in vivo
[11] = Cmax in rat at 5 mg/kg, po; assay type: ADME, organism-based; parameters: dose 5 mg/kg, route oral; settings: in vivo
[12] = Half life in rat at 1 mg/kg, iv; assay type: ADME, organism-based; parameters: dose 1 mg/kg, route intravenous; settings: in vivo
[13] = Ratio of drug level in brain to plasma in ip dosed rat after 1 hr; assay type: ADME, organism-based; settings: read-out: BPR
[14] = Volume of distribution in rat at 1 mg/kg, iv; assay type: ADME, organism-based; parameters: dose 1 mg/kg, route intravenous; settings: in vivo
[15] = Half life in dog liver microsomes; assay type: ADME, Canis lupus familiaris, Microsome
[16] = target: Histamine H4 receptor (Homo sapiens) (UniProt Q9H3N8); assay: Inhibition of human histamine H4 receptor at 10 uM
[17] = Inhibition of dihydropyridine site of calcium channel at 10 uM
[18] = target: Histamine H2 receptor (Homo sapiens) (UniProt P25021); assay: Inhibition of human histamine H2 receptor at 10 uM
Chain of Histamine H2 receptor (Homo sapiens) (P25021 whole entry): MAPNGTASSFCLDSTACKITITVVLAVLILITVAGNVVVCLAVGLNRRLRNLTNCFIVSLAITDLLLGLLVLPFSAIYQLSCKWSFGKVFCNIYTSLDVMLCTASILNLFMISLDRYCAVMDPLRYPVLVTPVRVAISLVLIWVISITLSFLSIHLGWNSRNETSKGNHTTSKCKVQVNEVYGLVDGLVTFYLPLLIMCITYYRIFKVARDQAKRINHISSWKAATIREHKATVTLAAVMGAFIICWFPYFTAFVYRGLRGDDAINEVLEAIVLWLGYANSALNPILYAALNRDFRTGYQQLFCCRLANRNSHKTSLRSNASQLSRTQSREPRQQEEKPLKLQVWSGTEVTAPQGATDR

[19] = target: Histamine H1 receptor (Homo sapiens) (UniProt P35367); assay: Inhibition of human histamine H1 receptor at 10 uM
hERG (KCNH2) = hERG (KCNH2) (Homo sapiens, UniProt Q12809); assay: Inhibition of human ERG at 10 uM by patch clamp assay
Chain of hERG (KCNH2) (Q12809 whole entry): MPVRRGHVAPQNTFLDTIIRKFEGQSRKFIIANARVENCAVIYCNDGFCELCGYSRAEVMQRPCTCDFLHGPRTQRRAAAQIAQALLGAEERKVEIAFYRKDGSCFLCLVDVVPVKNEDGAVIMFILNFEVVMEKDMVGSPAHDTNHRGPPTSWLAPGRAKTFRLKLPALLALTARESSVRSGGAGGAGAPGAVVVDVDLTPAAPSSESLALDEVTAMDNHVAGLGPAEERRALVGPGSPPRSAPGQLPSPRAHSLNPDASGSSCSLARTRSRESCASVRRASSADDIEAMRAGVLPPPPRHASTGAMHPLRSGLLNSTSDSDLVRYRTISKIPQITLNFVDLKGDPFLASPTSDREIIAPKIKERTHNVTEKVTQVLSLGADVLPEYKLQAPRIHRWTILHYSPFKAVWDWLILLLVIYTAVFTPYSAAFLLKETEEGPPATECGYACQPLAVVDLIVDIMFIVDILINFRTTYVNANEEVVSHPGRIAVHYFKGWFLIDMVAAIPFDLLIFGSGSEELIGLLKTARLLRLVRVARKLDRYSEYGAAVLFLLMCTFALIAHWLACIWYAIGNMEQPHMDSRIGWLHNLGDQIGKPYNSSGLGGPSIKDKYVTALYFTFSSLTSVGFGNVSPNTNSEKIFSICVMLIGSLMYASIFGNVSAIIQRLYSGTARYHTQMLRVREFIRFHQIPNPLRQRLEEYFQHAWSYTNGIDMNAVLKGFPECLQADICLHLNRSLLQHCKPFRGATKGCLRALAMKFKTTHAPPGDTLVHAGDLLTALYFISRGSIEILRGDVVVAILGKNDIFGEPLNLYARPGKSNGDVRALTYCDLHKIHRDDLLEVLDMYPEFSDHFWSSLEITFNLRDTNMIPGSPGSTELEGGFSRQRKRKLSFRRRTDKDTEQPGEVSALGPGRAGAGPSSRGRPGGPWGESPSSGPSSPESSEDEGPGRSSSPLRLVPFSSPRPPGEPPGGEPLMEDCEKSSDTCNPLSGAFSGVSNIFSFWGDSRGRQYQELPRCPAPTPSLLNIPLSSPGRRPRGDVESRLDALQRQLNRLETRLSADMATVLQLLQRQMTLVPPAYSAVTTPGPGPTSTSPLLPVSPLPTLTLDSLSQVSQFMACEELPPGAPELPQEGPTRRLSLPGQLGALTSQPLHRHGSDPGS

[20] = target: Sodium-dependent noradrenaline transporter (Homo sapiens) (UniProt P23975); assay: Inhibition of norepinephrine transporter at 10 uM
Chain of Sodium-dependent noradrenaline transporter (Homo sapiens) (P23975 whole entry): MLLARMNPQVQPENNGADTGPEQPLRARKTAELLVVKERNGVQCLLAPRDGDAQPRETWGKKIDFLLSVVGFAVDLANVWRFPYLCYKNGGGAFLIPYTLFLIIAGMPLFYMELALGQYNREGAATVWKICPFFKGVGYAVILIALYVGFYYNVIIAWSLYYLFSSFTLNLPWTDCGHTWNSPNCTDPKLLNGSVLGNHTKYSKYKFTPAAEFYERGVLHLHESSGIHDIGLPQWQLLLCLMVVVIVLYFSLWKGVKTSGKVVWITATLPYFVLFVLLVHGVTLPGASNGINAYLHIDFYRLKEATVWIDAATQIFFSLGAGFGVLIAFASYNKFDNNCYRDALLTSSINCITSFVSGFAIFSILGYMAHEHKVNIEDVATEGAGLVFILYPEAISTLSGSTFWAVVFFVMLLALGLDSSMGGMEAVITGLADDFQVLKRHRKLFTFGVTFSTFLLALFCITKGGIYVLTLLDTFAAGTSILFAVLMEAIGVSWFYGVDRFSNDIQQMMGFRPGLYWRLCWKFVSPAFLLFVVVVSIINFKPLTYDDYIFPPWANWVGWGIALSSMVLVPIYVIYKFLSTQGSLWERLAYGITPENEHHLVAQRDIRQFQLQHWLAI

T1 sequence (Q9Y5N1 whole entry): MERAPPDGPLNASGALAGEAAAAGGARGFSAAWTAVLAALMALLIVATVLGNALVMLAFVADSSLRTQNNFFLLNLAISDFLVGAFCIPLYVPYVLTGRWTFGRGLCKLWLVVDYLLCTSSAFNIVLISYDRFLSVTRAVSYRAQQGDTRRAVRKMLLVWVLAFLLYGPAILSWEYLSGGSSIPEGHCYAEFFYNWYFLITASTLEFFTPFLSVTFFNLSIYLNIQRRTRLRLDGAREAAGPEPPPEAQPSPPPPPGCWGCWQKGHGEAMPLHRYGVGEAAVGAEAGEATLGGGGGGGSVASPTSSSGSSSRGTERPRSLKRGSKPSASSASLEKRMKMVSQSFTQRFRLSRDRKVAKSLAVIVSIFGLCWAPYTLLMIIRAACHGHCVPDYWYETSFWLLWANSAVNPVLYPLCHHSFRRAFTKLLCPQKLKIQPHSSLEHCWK

SMILES	Ki (Histamine H3 receptor [1])	Ki (Histamine H3 receptor [2])	IC50 (Cytochrome P450 1A2)	IC50 (Cytochrome P450 2C19)	IC50 (Cytochrome P450 3A4)	IC50 (Cytochrome P450 2C9)	IC50 (Cytochrome P450 2D6)	further results
O=c1c2ccccc2c(-c2ccc(OCCCN3CCCCC3)cc2)nn1Cc1ccc(Cl)cc1	11 nM	23 nM	–	–	–	–	–	–
CC(C)n1nc(-c2ccc(OCCCN3CCCC3)cc2)c2sccc2c1=O	4 nM	7 nM	–	–	–	–	–	–
COC[C@@H]1CCCN1CCCOc1ccc(-c2nn(C(C)C)c(=O)c3ccsc23)cc1	50 nM	1170 nM	–	–	–	–	–	–
CC(C)n1nc(-c2ccc(OCCCN3CCC[C@H]3C)cc2)c2sccc2c1=O	2.6 nM	8.3 nM	> 30000 nM	> 30000 nM	> 30000 nM	> 30000 nM	> 30000 nM	bioavailability [5]: < 1%; AUC [8]: 160 ng·h/mL; clearance [10]: 117 mL/min/kg; Cmax [11]: < 5 ng/mL; half-life [12]: 18 min; Kp at 1 h [13]: 4.07; Vd [14]: 2.98 L/kg
C[C@@H]1CCCN1CCCOc1ccc(-c2nn(C)c(=O)c3c2CCCC3)cc1	0.8 nM	1.2 nM	> 30000 nM	> 30000 nM	> 30000 nM	> 30000 nM	> 30000 nM	–
C[C@@H]1CCCN1CCCOc1ccc(-c2nn(Cc3ccc(Cl)cc3)c(=O)c3ccccc23)cc1	4.6 nM	12 nM	–	–	–	–	–	–
Cn1nc(-c2ccc(OCCCN3CCCC3)cc2)c2ccccc2c1=O	1.7 nM	3.6 nM	–	–	–	–	–	–
Cn1nc(-c2ccc(OCCN3CCCCC3)cc2)c2ccccc2c1=O	84 nM	> 1000 nM	–	–	–	–	–	–
CCCn1nc(-c2ccc(OCCCN3CCC[C@H]3C)cc2)c2sccc2c1=O	1.5 nM	12 nM	–	–	–	–	–	–
CN1N=C(c2ccc(OCCCN3CCCCC3)cc2)C2CCCC2C1=O (configuration not stated)	2.3 nM	9.4 nM	> 30000 nM	> 30000 nM	> 30000 nM	> 30000 nM	> 30000 nM	–

The remaining compounds from weak to strong by Ki (Histamine H3 receptor [1]), led by results:

Ki (Histamine H3 receptor [1])	Ki (Histamine H3 receptor [2])	IC50 (Cytochrome P450 1A2)	IC50 (Cytochrome P450 2C19)	IC50 (Cytochrome P450 3A4)	IC50 (Cytochrome P450 2C9)	IC50 (Cytochrome P450 2D6)	SMILES	further results
1120 nM	> 3000 nM	–	–	–	–	–	COC[C@H]1CCCN1CCCOc1ccc(-c2nn(C(C)C)c(=O)c3ccsc23)cc1	–
48 nM	143 nM	–	–	–	–	–	O=c1c2ccsc2c(-c2ccc(OCCCN3CCCCC3)cc2)nn1Cc1ccc(Cl)cc1	–
23 nM	167 nM	–	–	–	–	–	CCN(CC)CCCOc1ccc(-c2nn(C(C)C)c(=O)c3ccsc23)cc1	–
23 nM	58 nM	–	–	–	–	–	CCCn1nc(-c2ccc(OCCCN3CCC(C)CC3)cc2)c2sccc2c1=O	–
2.4 nM	12 nM	–	–	–	–	–	C[C@@H]1CCCN1CCCOc1ccc(-c2nn(Cc3ccc(Cl)cc3)c(=O)c3ccsc23)cc1	–
1.9 nM	19 nM	–	–	–	–	–	CC(C)n1nc(-c2ccc(OCCCN3CCCCC3)cc2)c2sccc2c1=O	–
1.6 nM	4.7 nM	> 30000 nM	> 30000 nM	> 30000 nM	> 30000 nM	> 30000 nM	C[C@@H]1CCCN1CCCOc1ccc(C2=NN(C)C(=O)C3CCCC23)cc1 (some centres not stated)	–
1.5 nM	4.5 nM	> 30000 nM	> 30000 nM	> 30000 nM	> 30000 nM	> 30000 nM	Cn1nc(-c2ccc(OCCCN3CCCCC3)cc2)c2c(c1=O)CCCC2	–
1.4 nM	1.8 nM	–	–	–	–	–	Cn1nc(-c2ccc(OCCCN3CCCCCC3)cc2)c2ccccc2c1=O	–
0.8 nM	9 nM	> 30000 nM	> 30000 nM	> 30000 nM	> 30000 nM	> 30000 nM	Cn1nc(-c2ccc(OCCCN3CCCCC3)cc2)c2ccccc2c1=O	bioavailability [5]: < 1%; half-life [6]: > 40 min; AUC [7]: 14 ng·h/mL; AUC [8]: 402 ng·h/mL; half-life [9]: > 40 min; clearance [10]: 52 mL/min/kg; Cmax [11]: 20 ng/mL; half-life [12]: 18 min; Kp at 1 h [13]: 2.98; Vd [14]: 1.36 L/kg; half-life [15]: > 40 min
0.8 nM	3.8 nM	–	–	–	–	–	C[C@@H]1CCCN1CCCOc1ccc(-c2nn(C)c(=O)c3ccccc23)cc1	–
0.5 nM	4.3 nM	> 30000 nM	> 30000 nM	> 30000 nM	> 30000 nM	> 30000 nM	Cn1nc(-c2ccc(OCCCN3CCCCC3)cc2)c2c(c1=O)CCC2	EC50 (Histamine H3 receptor [3]): 0.8 nM; Kb (Histamine H3 receptor [4]): 0.2 nM
0.4 nM	2 nM	> 30000 nM	> 30000 nM	> 30000 nM	> 30000 nM	> 30000 nM	C[C@@H]1CCCN1CCCOc1ccc(-c2nn(C)c(=O)c3c2CCC3)cc1	inhibition [16]: < 30%; bioavailability [5]: < 1%; inhibition [17]: 68%; inhibition [18]: < 30%; inhibition [19]: < 30%; EC50 (Histamine H3 receptor [3]): 0.8 nM; AUC [7]: 5.82 ng·h/mL; AUC [8]: 182 ng·h/mL; Kb (Histamine H3 receptor [4]): 0.2 nM; clearance [10]: 163 mL/min/kg; Cmax [11]: 7 ng/mL; half-life [12]: 15.6 min; inhibition at 10 µM (hERG (KCNH2)): 23%; Kp at 1 h [13]: 1.2; Vd [14]: 3.35 L/kg; inhibition [20]: 60%
